# Legend:
# [1] = tested on: Firefly (FFLY) luciferase; test: Bioluminescence-triggered uncaging of o-nitrobenzyl-F-luciferin, FFLY luminescence readout; assay type: biochemical
# Description: (§1) As depicted in FIG. 18A, bioluminescence-triggered ruthenium-catalyzed excitation of o-nitrobenzyl-caged F-luciferin to liberate F-luciferin, which is then available as a substrate for FFLY luciferase. Synthesis of o-nitrobenzyl-caged F-luciferin is provided in Example 11. […] Residual NanoLuc bioluminescence signal was quenched by treatment with 10 mM competitive extracellular NanoLuc inhibitor before subsequent 5-fold dilution into FFLY detection plate comprising FFLY luciferase, ATP, and Bright-Glo buffer. Bioluminescence was measured before and after dilution into the FFLY detection plate.
# [2] = tested on: Firefly (FFLY) luciferase; test: Bioluminescence-triggered uncaging of p-azidobenzyl-luciferin, FFLY luminescence readout; assay type: biochemical
# Description: as §1, with “FIG. 17A,” for “FIG. 18A,”, “ruthenium-catalyzed reduction” for “ruthenium-catalyzed excitation”, “of p-azidobenzyl-caged luciferin” for “of o-nitrobenzyl-caged F-luciferin”, “liberate luciferin,” for “liberate F-luciferin,”, “as” for “as a”, “for Firefly (FFLY)” for “for FFLY”
# [3] = tested on: HeLa cells expressing the HT178-cpNLuc-179 chimera; test: Bioluminescence-triggered uncaging of azido-quenched fluorophores inside cells; assay type: cell-based; settings: 2-20 μM fluorophore, 20 μM fluorofurimazine 45 minutes, with/without Ir-9049 or Ru-8974 (3 μM)
# Description: Structure of exemplary azido quenched fluorophores and a cartoon depicting bioluminescent-triggered fluorescence turn-on are included in FIG. 9. Briefly, upon absorbance of light, the excited catalyst engages in energy transfer events with the azido-quenched fluorophore to generate a nitrene through elimination of an N2 group, which restore the fluorophore's fluorescence. HeLa cells were transfected with a DNA construct encoding HT178-cpNLuc-179 that was diluted 50-fold into promoterless carrier DNA, plated in flasks at 2×10^5 cell/mL, and incubated 16-18 hours at 37° C., 5% CO2. The next day, cells were collated, replated in 24-well plates at 2×10^5 cell/mL, and incubated overnight at 37° C., 5% CO2. […] Cells were then washed twice, 15 minutes each, in HBSS buffer to remove excess unreacted catalyst or chloroalkane-biotin.
# [4] = tested on: NanoLuc (Nluc) enzyme; test: Bioluminescence-triggered release of serotonin from caging Ru complex; assay type: biochemical; settings: 200 μM RuBi5, 6 nM NanoLuc, 5 μM fluorofurimazine, 40 minutes
# Description: As depicted in FIG. 16A, the amino-signaling molecule serotonin is caged through a coordination reaction with the [Ru^2+(bpy)2]2 core. Upon absorbance of light, the excited ruthenium catalyst induces an oxidation-driven release of serotonin while a water molecule occupies the vacant coordination site.
# Here, 6 nM NanoLuc (Nluc) enzyme and 5 μM fluorofurimazine, in the presence and absences of 200 μM RuBi5 (Abcam), were incubated in a white plate for 40 minutes. Reactions were then transferred to a black plate, and 200 μM RuBi5 (caged) added to the control wells.
# [5] = 60 nM HT178-cpNLuc-179 tethered/untethered to Ru-8974, 0-10 μM, with/without 20 μM fluorofurimazine, 45 minutes
# [6] = fold increase in FFLY luminescence
molecule,measurement,setting,value
"O=C(O)[C@H]1CSC(c2nc3cc(F)c(OCc4ccc([N+](=O)[O-])cc4)cc3s2)=N1 [o-nitrobenzyl-F-luciferin, (S)-2-(5-fluoro-6-((4-nitrobenzyl)oxy)benzo[d]thiazol-2-yl)-4,5-dihydrothiazole-4-carboxylic acid]",FFLY luminescence after uncaging,[1]; [5],Bioluminescence and Ru-dependent increase in FFLY dependent bioluminescence
same,"uncaging efficiency, bioluminescence versus LED",[1]; [6],higher efficiency for bioluminescence-driven uncaging compared to LED
"[N-]=[N+]=Nc1ccc(COc2ccc3nc(C4=N[C@@H](C(=O)O)CS4)sc3c2)cc1 [p-azidobenzyl-luciferin, (S)-2-(6-((4-azidobenzyl)oxy)benzo[d]thiazol-2-yl)-4,5-dihydrothiazole-4-carboxylic acid]",FFLY luminescence after uncaging,[2]; [5],Bioluminescence and Ru-dependent increase in FFLY dependent bioluminescence
same,"uncaging efficiency, bioluminescence versus LED",[2]; [6],higher efficiency for bioluminescence-driven uncaging compared to LED
"CC[n+]1c(-c2ccccc2)c2cc(N=[N+]=[N-])ccc2c2ccc(N)cc21.[Br-] [EMA, Ethidium Monoazide Bromide, reference compound]",fluorescence turn-on upon uncaging,[3],pronounced catalyst dependent increase in fluorescence
CCN(CC)c1ccc2c(C)c(N=[N+]=N)c(=O)oc2c1 [PBI-8977],fluorescence turn-on upon uncaging,[3],pronounced catalyst dependent increase in fluorescence
[Ru(bpy)2(PMe3)(5HT)]^2+ [RuBi5],serotonin emission after bioluminescence exposure,[4],bioluminescence-dependent increase in the 340 nm peak emission for serotonin

# Source: patent US20240377404A1, “BIOLUMINESCENCE-TRIGGERED PHOTOCATALYTIC ACTIVATION” (Promega Corporation, priority 2023, published 2024)
